Measurements: publication PMC12678798, “Discovery of an allosteric binding site for anthraquinones at the human P2X4 receptor” (Nature Communications, 2025)
Where a chain is given by its changes, count along the chain named. Entries after “also recorded” stand apart in the source; their conditions may differ. Read-outs that look alike come from different tables or passages of the source.

Experiments:
human wt P2X4 receptor = target: T1, human wt P2X4 receptor (Homo sapiens, UniProt Q99571); assay: ATP-induced calcium influx assay, human wt P2X4 receptor in 1321N1 astrocytoma cells; format: cell-based
T1 construct: expressed in transfected cells
T1 sequence (Q99571 1-388): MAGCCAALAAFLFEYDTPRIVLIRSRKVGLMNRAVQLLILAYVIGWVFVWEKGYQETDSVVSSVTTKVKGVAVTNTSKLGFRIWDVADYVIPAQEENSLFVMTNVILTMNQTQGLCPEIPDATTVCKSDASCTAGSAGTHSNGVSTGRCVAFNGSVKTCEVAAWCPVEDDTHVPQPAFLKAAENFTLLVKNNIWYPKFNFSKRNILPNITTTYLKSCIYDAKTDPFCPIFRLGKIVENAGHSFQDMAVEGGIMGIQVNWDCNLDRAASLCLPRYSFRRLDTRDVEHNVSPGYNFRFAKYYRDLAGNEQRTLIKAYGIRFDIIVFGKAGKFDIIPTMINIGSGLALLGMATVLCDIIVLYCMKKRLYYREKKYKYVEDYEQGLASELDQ

[1] = Physicochemical properties (water solubility, lipophilicity); details: as stated in words
[2] = target: T2, P2X4 receptor mutant E307T_R82A (Homo sapiens, UniProt Q99571, E307T/R82A); assay: TEVC, double mutant E307T_R82A in Xenopus laevis oocytes; format: cell-based; details: 10 µM ATP, 2 min preincubation
T2 construct: host or cells: Xenopus laevis oocytes injected with cRNA (pNKS2 vector)
Method: (§1) Xenopus laevis frogs were from Nasco International (Fort Atkinson, WI, USA) and kept at the Core Facility Animal Models (CAM) of the BMC of LMU Munich, Germany (Az: 4.3.2–5682/LMU/BMC/CAM) in accordance with the EU Animal Welfare Act. […] Fifty nanoliters of cRNA (0.5 µg/µL) were injected using a Nanoject II injector (Science Products, Drummond, USA) and oocytes were kept in ND96 (96 mM NaCl, 2 mM KCl, 1 mM MgCl2, 1 mM CaCl2, 5 mM HEPES, pH 7.4–7.5) supplemented with 5 μg/mL gentamicin at 16 °C.
(§2) cDNA encoding human P2X4 receptor (NM_002560.3) was obtained from BioCat GmbH (Heidelberg, Germany) and cloned into the pNKS2 vector[87] using Gibson Assembly (E2621L, New England Biolabs, USA) according to the manufacturer’s instructions. Point mutations were introduced by site-directed mutagenesis using KLD Enzyme Mix (M0554S, New England Biolabs, USA). All constructs were verified by full-length cDNA sequencing (Eurofins Genomics, Germany). Plasmids were linearized with NotI-HF (R3189S, New England Biolabs, USA) and purified using the MinElute Reaction Cleanup Kit (Qiagen, Hilden, Germany). […]
(§3) Statistical analysis was performed with GraphPad Prism version 10 software, and data are presented as means ± SEM. Data were assessed for normality using the Shapiro–Wilk test and for homogeneity of variances using Levene’s test. […]

[3] = target: T3, human P2X4-E307T receptor mutant (Homo sapiens, UniProt Q99571, E307T); assay: ATP-induced calcium influx assay, P2X4-E307T mutant in 1321N1 astrocytoma cells; format: cell-based; details: for Potency increase at P2X4-E307T compared to wt P2X4: ratio of IC50 values, calcium influx
T3 construct: expressed in transfected cells
T3 sequence (Q99571 1-388 E307T): T1 sequence (Q99571 1-388) with E307T

[4] = target: T4, P2X4 receptor mutant E307T_K298A (Homo sapiens, UniProt Q99571, E307T/K298A); assay: TEVC, double mutant E307T_K298A in Xenopus laevis oocytes; format: cell-based; details: 10 µM ATP, 2 min preincubation
T4 construct: host or cells: Xenopus laevis oocytes injected with cRNA (pNKS2 vector)
Method: as §1, §2, §3

[5] = target: T5, hP2X4-E307T receptor mutant (Homo sapiens, UniProt Q99571, E307T); assay: Two-electrode voltage clamp (TEVC), P2X4-E307T in Xenopus laevis oocytes; format: cell-based; details: for Inhibition of ATP-induced current: E307T, 10 µM ATP, 2 min preincubation, PSB-0704 3 µM, PSB-0739 300 nM and 1 µM; for IC50: read-out: pIC50 (inhibition of ATP-induced current) (converted)
T5 construct: host or cells: Xenopus laevis oocytes injected with cRNA (pNKS2 vector)
T5 sequence (Q99571 1-388 E307T): T1 sequence (Q99571 1-388) with E307T

[6] = target: T6, P2X4 receptor mutant E307T_R301A (Homo sapiens, UniProt Q99571, E307T/R301A); assay: TEVC, double mutant E307T_R301A in Xenopus laevis oocytes; format: cell-based; details: 10 µM ATP, 2 min preincubation
T6 construct: host or cells: Xenopus laevis oocytes injected with cRNA (pNKS2 vector)
Method: as §1, §2, §3

[7] = target: T7, P2X4 receptor mutant E307T_R301K (Homo sapiens, UniProt Q99571, E307T/R301K); assay: TEVC, double mutant E307T_R301K in Xenopus laevis oocytes; format: cell-based; details: 10 µM ATP, 2 min preincubation
T7 construct: host or cells: Xenopus laevis oocytes injected with cRNA (pNKS2 vector)
Method: as §1, §2, §3

[8] = target: T8, P2X4 receptor mutant E307Q (Homo sapiens, UniProt Q99571, E307Q); assay: TEVC, P2X4-E307Q mutant in Xenopus laevis oocytes; format: cell-based; details: 10 µM ATP, 2 min preincubation, PSB-0704 3 µM, PSB-0739 300 nM and 1 µM
T8 construct: host or cells: Xenopus laevis oocytes injected with cRNA (pNKS2 vector)
Method: as §1, §2, §3

[9] = target: T9, chimeric P2X4(P2X2) receptor c10^R301-Q308 (Homo sapiens, UniProt Q99571, A304N/D302K/DEL301-301/E307T/L303I/N306T/Q308T); assay: ATP-induced calcium influx assay, chimeric receptor c10 in 1321N1 astrocytoma cells; format: cell-based
T9 construct: expressed in transfected cells; gene synthesis (Geneart), pLVX-IRES-mCherry (bicistronic, mCherry not fused)
T9 sequence (Q99571 with tags, fused parts or gaps DEL301-301/D302K/L303I/A304N/N306T/E307T/Q308T): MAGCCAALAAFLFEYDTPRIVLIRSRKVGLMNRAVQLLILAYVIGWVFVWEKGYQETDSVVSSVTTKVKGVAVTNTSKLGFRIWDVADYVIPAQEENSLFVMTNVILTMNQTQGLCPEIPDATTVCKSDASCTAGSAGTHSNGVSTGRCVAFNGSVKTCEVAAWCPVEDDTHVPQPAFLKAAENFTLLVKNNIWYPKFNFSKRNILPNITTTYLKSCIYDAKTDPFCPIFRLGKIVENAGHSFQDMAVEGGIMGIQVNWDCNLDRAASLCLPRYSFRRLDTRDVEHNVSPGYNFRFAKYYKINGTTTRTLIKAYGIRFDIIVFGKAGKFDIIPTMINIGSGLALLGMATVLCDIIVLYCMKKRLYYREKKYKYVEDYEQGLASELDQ

[10] = target: T10, chimeric P2X4(P2X2) receptor c6^N208-S216 (Homo sapiens, UniProt Q99571, I209R/N208D/S216R/T211D/T212G); details: ATP at EC80
T10 sequence (Q99571 1-388 N208D/I209R/T211D/T212G/S216R): T1 sequence (Q99571 1-388) with N208D, I209R, T211D, T212G, S216R

[11] = target: T11, P2X4-Q308T receptor mutant (Homo sapiens, UniProt Q99571, Q308T); details: calcium influx
T11 sequence (Q99571 1-388 Q308T): T1 sequence (Q99571 1-388) with Q308T

human wt P2X2 receptor = target: T12, human wt P2X2 receptor (Homo sapiens, UniProt Q9UBL9); assay: ATP-induced calcium influx assay, human wt P2X2 receptor in 1321N1 astrocytoma cells; format: cell-based; details: for IC50: wt hP2X2
T12 construct: expressed in transfected cells
T12 sequence (Q9UBL9 1-471): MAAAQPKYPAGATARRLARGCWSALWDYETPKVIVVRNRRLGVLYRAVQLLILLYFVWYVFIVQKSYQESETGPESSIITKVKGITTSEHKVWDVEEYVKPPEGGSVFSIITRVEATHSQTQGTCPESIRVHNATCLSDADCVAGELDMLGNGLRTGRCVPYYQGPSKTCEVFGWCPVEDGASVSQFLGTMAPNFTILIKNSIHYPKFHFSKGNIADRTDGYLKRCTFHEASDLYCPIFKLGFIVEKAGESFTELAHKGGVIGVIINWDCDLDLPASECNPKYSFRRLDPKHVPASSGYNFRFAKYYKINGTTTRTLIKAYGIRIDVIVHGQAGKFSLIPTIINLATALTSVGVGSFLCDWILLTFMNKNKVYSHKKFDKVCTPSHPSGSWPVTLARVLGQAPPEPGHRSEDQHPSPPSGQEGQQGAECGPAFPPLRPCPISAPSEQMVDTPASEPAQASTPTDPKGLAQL

T7 sequence (Q99571 whole entry R301K/E307T): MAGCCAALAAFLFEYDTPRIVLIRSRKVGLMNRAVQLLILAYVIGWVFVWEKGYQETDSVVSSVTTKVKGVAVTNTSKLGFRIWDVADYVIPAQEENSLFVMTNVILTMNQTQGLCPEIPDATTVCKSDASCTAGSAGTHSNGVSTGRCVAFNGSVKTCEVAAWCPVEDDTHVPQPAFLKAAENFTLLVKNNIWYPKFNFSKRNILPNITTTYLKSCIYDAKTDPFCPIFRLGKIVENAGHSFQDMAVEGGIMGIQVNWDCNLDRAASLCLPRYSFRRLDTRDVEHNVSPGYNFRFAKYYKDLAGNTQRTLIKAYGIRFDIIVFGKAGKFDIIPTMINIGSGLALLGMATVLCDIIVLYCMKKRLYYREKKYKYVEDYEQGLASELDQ
T4 sequence (Q99571 whole entry K298A/E307T): as the sequence (Q99571 whole entry R301K/E307T) above, with K298A, K301R counted along it
T8 sequence (Q99571 whole entry E307Q): as the sequence (Q99571 whole entry R301K/E307T) above, with K301R, T307Q counted along it
T6 sequence (Q99571 whole entry R301A/E307T): as the sequence (Q99571 whole entry R301K/E307T) above, with K301A counted along it
T2 sequence (Q99571 whole entry R82A/E307T): as the sequence (Q99571 whole entry R301K/E307T) above, with R82A, K301R counted along it

| IC50 (human wt P2X4 receptor) [µM] | Effect of mutation on antagonist potency (vs E307T) [2] | IC50 [3] [µM] | Effect of mutation on antagonist potency (vs E307T) [4] | Inhibition of ATP-induced current [5] | IC50 [5] [µM] | Effect of mutation on antagonist potency (vs E307T) [6] | Inhibition of ATP-induced current [8] | IC50 [9] [µM] | Compound | Water solubility [1] | Potency increase at P2X4-E307T compared to wt P2X4 [3] [fold] | Effect of mutation on antagonist potency (vs E307T) [7] | Enhancement of the ATP effect at low concentrations (human wt P2X4 receptor; wt P2X4, ATP at EC80) | Kind of modulation (shape of concentration-response curve) (human wt P2X4 receptor; wt P2X4, ATP at EC80) | Kind of modulation (shape of concentration-response curve) [10] | Potency at P2X4-Q308T compared to wt P2X4 [11] | Kind of modulation at an EC20 of ATP (human wt P2X2 receptor; P2X2, ATP […] (EC20)) | IC50 (human wt P2X2 receptor; ATP at EC80, read-out: IC50) [µM] | IC50 (human wt P2X2 receptor; read-out: pIC50 ± SEM (n value) (converted)) [µM] |
| --- | --- | --- | --- | --- | --- | --- | --- | --- | --- | --- | --- | --- | --- | --- | --- | --- | --- | --- | --- |
| 12.5 ± 1.9 | reduction in inhibitory potency | 0.0724 ± 0.0102 | reduction in inhibitory potency | strong inhibition | 1.62 | reduction in inhibitory potency | strong inhibition |  | Nc1c(C(=O)O)cc(Nc2ccc(Nc3ccccc3)c(C(=O)O)c2)c2c1C(=O)c1ccccc1C2=O [PSB-0704] | water-soluble | > 170 | similarly potent; also recorded: no consequences |  |  |  |  |  |  |  |
| 8.91 ± 0.67 | reduction in inhibitory potency | 0.0353 ± 0.0047 | reduction in inhibitory potency | strong inhibition | 0.324 | reduction in inhibitory potency | strong inhibition | 0.00341 ± 0.00049 | Nc1c(S(=O)(=O)O)cc(Nc2ccc(Nc3ccccc3)c(S(=O)(=O)O)c2)c2c1C(=O)c1ccccc1C2=O [PSB-0739] |  |  | similarly potent; also recorded: no consequences |  |  |  |  |  |  |  |
|  |  |  |  |  |  |  |  |  | Nc1c(S(=O)(=O)O)cc(Nc2ccc(Nc3nc(Cl)nc(Nc4ccccc4S(=O)(=O)O)n3)c(S(=O)(=O)O)c2)c2c1C(=O)c1ccccc1C2=O [Cibacron Blue] | water-soluble | 680 |  | up to 141% | biphasic modulation | biphasic modulation | similar | no clear activating effect | 13.1 | 12.6 |
